Numbered stars: 1 amine (or outer) side, 2 acyl side, 3 side chain; on linkers, the order of the positions; unused ones are H or OH. Square brackets hold non-standard residues; d marks the D form. Peptide text beside a SMILES is read from it. Sta = CC(C)C[C@H](N)[C@@H](O)CC(=O)O; X1 = CCC(O)[C@H](N[*:1])C(=O)[*:2]; Orn = NCCC[C@H](N)C(=O)O
What was measured:
Beta-secretase 1 [1] = molecular target: T1, Beta-secretase 1 (Homo sapiens, UniProt P56817); assay: Compound was tested for its inhibitory activity against human beta-Secretase (BACE)
Beta-secretase 1 [2] = molecular target: T1, Beta-secretase 1; assay: Compound was tested for its effective concentration against human beta-Secretase (BACE)

T1 sequence (P56817 whole entry): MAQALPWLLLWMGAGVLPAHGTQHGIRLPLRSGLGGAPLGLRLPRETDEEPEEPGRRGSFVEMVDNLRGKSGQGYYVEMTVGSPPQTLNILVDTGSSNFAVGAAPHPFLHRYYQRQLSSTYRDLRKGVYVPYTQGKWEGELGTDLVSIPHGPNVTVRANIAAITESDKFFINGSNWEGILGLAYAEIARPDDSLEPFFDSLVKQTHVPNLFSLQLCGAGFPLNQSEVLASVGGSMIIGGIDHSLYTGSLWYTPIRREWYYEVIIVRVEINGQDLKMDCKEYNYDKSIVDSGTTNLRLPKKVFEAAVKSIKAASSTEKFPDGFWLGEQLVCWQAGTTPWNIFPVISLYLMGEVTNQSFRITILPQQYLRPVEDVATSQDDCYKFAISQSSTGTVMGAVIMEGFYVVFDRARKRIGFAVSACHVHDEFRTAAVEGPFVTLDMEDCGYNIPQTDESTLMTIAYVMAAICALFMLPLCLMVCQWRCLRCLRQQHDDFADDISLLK

| Compound | IC50 (Beta-secretase 1 [1]) | EC50 (Beta-secretase 1 [2]) |
| --- | --- | --- |
| CC(C)[C@H](NC(=O)C[C@H](O)[C@H](Cc1cc(F)cc(F)c1)NC(=O)C(O)c1ccccc1-c1ccccc1)C(=O)Nc1cc(C(=O)O)cc(C(=O)O)c1 (stereo partly specified) | 0.02 µM | 10 µM |
| COC(=O)c1cc(NC(=O)[C@@H](NC(=O)C[C@H](O)[C@H](Cc2cc(F)cc(F)c2)NC(=O)C(O)c2ccccc2-c2ccccc2)C(C)C)cc(C(=O)OC)c1 (stereo partly specified) | 0.12 µM | 4 µM |
| CSCC[C@H](NC(=O)[C@@H](NC(=O)OC(C)(C)C)C(C)C)C(=O)N[C@@H](CC(C)C)[C@@H](O)C[C@@H](C)C(=O)N[C@H](C(=O)NCc1ccccc1)C(C)C | 0.002 µM |  |
| CCC(O)[C@H](NC(=O)[C@@H](N)CCCN)C(=O)N[C@@H](CCC(=O)O)C(=O)N[C@@H](CCC(=O)O)C(=O)N[C@H](C(=O)N[C@@H](CO)C(=O)N[C@@H](CCC(=O)O)C(=O)N[C@H](C(=O)N[C@@H](CCSC)C(=O)N[C@@H](CC(C)C)[C@@H](O)CC(=O)N[C@H](C(=O)N[C@@H](C)C(=O)N[C@@H](CCC(=O)O)C(=O)N[C@@H](Cc1ccccc1)C(=O)O)C(C)C)C(C)C)[C@@H](C)CC (stereo partly specified) (H-[Orn][X1]EEISEVM[Sta]VAEF-OH) | 0.03 µM |  |

From ChEMBL document CHEMBL1144938, “Human beta-secretase (BACE) and BACE inhibitors” (J Med Chem, 2003)
